Measured values published in US20120121691A1, “Method for Increasing the Production of a Specific ACYL-Chain Dihydroceramide(s) for Improving the Effectiveness of Cancer Treatments” (priority 2010, published 2012).
Entries after “also recorded” stand apart in the source; their conditions may differ.

Columns and labels:
[1] = tested on: NCI-H1792 non-small cell lung cancer cells; experiment: DIMSCAN cytotoxicity assay, NCI-H1792; assay type: cell-based; conditions: NCI-H1792, fatty acid 5 micromolar
From the text: (§1) Cell culture. The pre-T acute lymphoblastic leukemia cell lines MOLT-4 and CCRF-CEM, small cell lung cancer cell line NCI-H146, non-small cell lung cancer cell line NCI-H1792, colon cancer cell lines LoVo and HT-29, and breast cancer cell line MCF-7, were purchased from American Type Culture Collection, Manassas, Va., and grown at 20%/5% and 5%/5%, respectively. COG-LL-317 and COG-LL-332 pre-T acute lymphoblastic leukemia cell lines were obtained from the TTUHSC Cancer Center Cell Repository and grown at 5%/5%. Cell line identities were verified by short tandem repeat analysis and mycoplasma testing was performed. Cell lines were maintained in RPMI-1640 medium supplemented with 10% fetal bovine serum (FBS, Invitrogen) in humidified, 37° C. incubators. For all experiments, ALL cell lines were seeded at 2. cells/mL in RPMI-1640 medium supplemented with 15% fetal bovine serum. Solid tumor cell lines were plated at 5×cells/mL in RPMI-1640 medium supplemented with 10% fetal bovine serum.
(§2) Cytotoxicity Assay. Cytoxicity is determined using the DIMSCAN assay system (R. Proffitt et al., Cytometry 24, 204-213 (1996); T. Frgala et al., Proc. AACR, 36, 303 (1995). The system employs digital imaging microscopy to quantify viable cells, which selectively accumulate fluorescein diacetate to become brightly fluorescent. The system is capable of measuring cytotoxicity over a 4-5 log dynamic range by quenching the residual fluorescence of dead and dying cells with eosin Y and quantifying the total fluorescence of viable cells using digital thresholding. Measured fluorescence is directly proportionate to the number of viable cells. A comparison of the total fluorescence of a drug-treated cell population to the fluorescence of a similar number of untreated cells yields a survival fraction.
In brief, 5,000 to 25,000 cells/well depending on the cell line (5,000 for solid tumor, 25,000 for ALL cell lines) were replicate plated into 60 wells of a 96-well tissue culture plate in 0.1 cc media and allowed to attach or recover overnight. […]

[2] = tested on: MOLT-4 ALL cells; experiment: DIMSCAN cytotoxicity assay, MOLT-4; assay type: cell-based, human; conditions: MOLT-4, sphinganine 1 μM, GT-11 0.5 μM, 48 hours
From the text: as §1
as §2, with “fraction. […]” for “fraction.”
(§3) The addition of C22:0-fatty acid, but not C18:0 or C22:1 fatty acids, increased cytotoxicity (FIGS. 7A-7F). […] Cytotoxicity was measured using DIMSCAN, and data was normalized to control and plotted as survival fraction (y-axis). […]

[3] = tested on: COG-LL-332; experiment: DIMSCAN cytotoxicity assay, COG-LL-332; assay type: cell-based; conditions: COG-LL-332, sphinganine 1 μM, GT-11 0.5 μM, 48 hours
From the text: as §1
as §2, with “fraction. […]” for “fraction.”
as §3

[4] = tested on: LoVo colon cancer cells; experiment: DIMSCAN cytotoxicity assay, LoVo; assay type: cell-based, human; conditions: fatty acid 5 micromolar
From the text: as §1
as §2, with “cells.” for “cells. A comparison of the total fluorescence of a drug-treated cell population to the fluorescence of a similar number of untreated cells yields a survival fraction.”
In brief, 5,000 to 25,000 cells/well depending on the cell line (5,000 for solid tumor, 25,000 for ALL cell lines) were replicate plated into 60 wells of a 96-well tissue culture plate in 0.1 cc media and allowed to attach or recover overnight. Drug(s) are then added in 0.05 cc media to the final concentrations indicated. […] Total fluorescence of viable cells is then measured by digital imaging microscopy and the signal normalized to control cells. […]

[5] = tested on: pre-T acute lymphoblastic leukemia cell lines CCRF-CEM, MOLT-4, COG-LL-317 and COG-LL-332; experiment: DIMSCAN cytotoxicity assay across the four pre-T ALL cell lines; assay type: cell-based, human; conditions: COG-LL-317, COG-LL-332, CCRF-CEM, 4-HPR 0-9 μM, 48 hours
From the text: as §1, with “For all experiments, ALL cell lines were seeded at 2. cells/mL in RPMI-1640 medium supplemented with 15% fetal bovine serum. Solid tumor cell lines were plated at 5×cells/mL in RPMI-1640 medium supplemented with 10% fetal bovine serum.” left out
as §2, with “A comparison of the total fluorescence of a drug-treated cell population to the fluorescence of a similar number of untreated cells yields a survival fraction.” left out

Row | Structure (SMILES) | effect of fatty acid on fenretinide cytotoxicity [1] | effect of fatty acid co-treatment on cytotoxicity of sphinganine with GT-11 [2] | effect of fatty acid co-treatment on cytotoxicity of sphinganine with GT-11 [3] | effect of fatty acid on fenretinide cytotoxicity [4] | effect of fatty acid on fenretinide (4-HPR) cytotoxicity [5]
1 | CCCCCCCCCCCCCCCCCCCCCC(=O)O [C22:0-fatty acid] | increased fenretinide cytotoxicity | increased | increased | increased fenretinide cytotoxicity | enhanced; also recorded: significantly increased cytotoxicity
2 | CCCCCCCC/C=C\CCCCCCCCCCCC(=O)O [C22:1-fatty acid] | – | not | not | – | –
